One compound from PMC6009956, “Design, synthesis and biological activity of N^4-phenylsubstituted-7H-pyrrolo[2,3-d]pyrimidin-4-amines as dual inhibitors of aurora kinase A and epidermal growth factor receptor kinase” (Journal of Enzyme Inhibition and Medicinal Chemistry, 2017) can be followed below.

As usually defined, the Kd is the constant that tells how readily two partners part at equilibrium.

For one test, the system named is FADU and BHY cell lines. The test can be described thus: Cell cycle analysis (PI, flow cytometry). Format: cell-based. Conditions: 100 μM, 24 and 48 h; more pronounced in BHY. As to the method:
For analysis of cell cycle distribution, cells were fixed with 70% of ethanol and stained with PI. Flow cytometric analysis of DNA content was performed using PI in the FL2 chanel in linear mode. Cells with less than diploid DNA content were considered dead (sub-G1).
Figure 5. Cell cycle analysis of FADU and BHY cell lines incubated for 24 and 48 h with 100 μM of compound 2. Cell cycle distribution according to PI uptake, shown is the cell fraction subG1 for cell death and in G1, S and G2M phase of the cell cycle. n = 3, * p < .01, ** p < .001.
(A flow cytometer gives signals particle by particle.)

In the next test the target is EGFR (Homo sapiens, UniProt P00533). Nature of the test: DiscoverX competition binding assay, EGFR. Set-up: purchased DiscoverX Corporation (assay run externally by the vendor). Conditions: read-out: Binding constant (Kd) EGFR. As to the method: The assay was performed externally at DiscoverX Corporation using a competition binding assay that quantitatively measures the ability of a compound to compete with an immobilised, active-site directed ligand[24]. The assay is performed by combining three components: DNA-tagged kinase, immobilised ligand and a test compound. The ability of the test compound to compete with the immobilised ligand was measured via quantitative PCR of the DNA tag. An 11-point 3-fold serial dilution of each test compound was prepared in 100% of DMSO at 100× final test concentration and subsequently diluted to 1× in the assay (final DMSO concentration = 1%). […] Binding constants (Kd) were calculated with a standard dose-response curve using the Hill equation.
Binding Affinities for EGFR, AURKA and AURKB
The assay was performed externally at DiscoverX Corporation using a competition binding assay that quantitatively measures the ability of a compound to compete with an immobilized, active-site directed ligand for target kinases AURKA, AURKB and EGFR.23 The assay is performed by combining three components: DNA-tagged kinase; immobilized ligand; and a test compound. The ability of the test compound to compete with the immobilized ligand was measured via quantitative PCR of the DNA tag. […] Compound Kds were determined using a compound top […]

EGFR, sequence (P00533 25-1210): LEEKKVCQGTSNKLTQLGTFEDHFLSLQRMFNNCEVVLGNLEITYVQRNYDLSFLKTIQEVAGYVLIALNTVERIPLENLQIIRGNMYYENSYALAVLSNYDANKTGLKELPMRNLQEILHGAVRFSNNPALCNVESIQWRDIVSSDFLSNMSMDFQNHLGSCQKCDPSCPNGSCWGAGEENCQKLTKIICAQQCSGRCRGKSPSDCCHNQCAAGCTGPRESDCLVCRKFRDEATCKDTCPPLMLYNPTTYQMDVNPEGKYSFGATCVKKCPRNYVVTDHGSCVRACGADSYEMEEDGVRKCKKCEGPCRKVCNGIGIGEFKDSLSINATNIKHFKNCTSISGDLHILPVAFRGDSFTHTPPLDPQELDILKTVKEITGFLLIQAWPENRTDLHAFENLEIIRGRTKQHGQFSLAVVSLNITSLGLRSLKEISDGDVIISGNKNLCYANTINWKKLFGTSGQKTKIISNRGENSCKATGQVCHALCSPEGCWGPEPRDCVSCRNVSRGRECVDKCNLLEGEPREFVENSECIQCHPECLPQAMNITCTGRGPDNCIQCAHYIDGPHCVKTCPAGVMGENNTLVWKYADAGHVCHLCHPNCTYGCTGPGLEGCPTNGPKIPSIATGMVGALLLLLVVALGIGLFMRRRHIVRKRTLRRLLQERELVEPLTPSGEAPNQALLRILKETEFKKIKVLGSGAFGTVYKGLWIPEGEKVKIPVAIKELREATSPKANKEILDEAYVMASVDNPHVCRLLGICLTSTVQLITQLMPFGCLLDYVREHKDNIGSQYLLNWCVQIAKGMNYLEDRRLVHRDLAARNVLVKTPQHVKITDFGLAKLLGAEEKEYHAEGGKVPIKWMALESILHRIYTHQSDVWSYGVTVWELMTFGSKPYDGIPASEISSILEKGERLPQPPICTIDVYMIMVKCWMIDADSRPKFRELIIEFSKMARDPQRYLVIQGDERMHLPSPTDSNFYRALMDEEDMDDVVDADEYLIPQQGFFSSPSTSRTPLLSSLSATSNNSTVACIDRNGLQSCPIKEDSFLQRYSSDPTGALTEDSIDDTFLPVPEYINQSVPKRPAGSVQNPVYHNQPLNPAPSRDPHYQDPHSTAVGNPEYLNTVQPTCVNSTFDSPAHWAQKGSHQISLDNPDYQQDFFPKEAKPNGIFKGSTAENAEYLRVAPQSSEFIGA

`Brc1cccc(Nc2ncnc3[nH]ccc23)c1` [Compound 2, N^4-(3-bromophenyl)-7H-pyrrolo[2,3-d]pyrimidine-4-amine]: the Cell cycle distribution entry in the test on FADU and BHY cell lines was “cell cycle arrest in G2M”. The Kd on EGFR was 0.067 µM.
